According to US9795619B2, “Pharmaceutical compositions” (priority 2012, dated 2017):

Columns and labels:
HIV [1] = conditions: cited from earlier work
[2] = LAP Rat PK study, SQ and IM injections (IV values given for reference); design: species or system Sprague-Dawley rats; conditions: Sprague-Dawley, in vivo, rat (FIG. 1)
[3] = LAP Dog PK study, SQ and IM injections (IV values given for reference); design: species or system Beagle dogs; conditions: in vivo
[4] = as above; conditions: in vivo, dose 5 mg/kg, Beagle dogs
Protocol: Injections were also made in Beagle dogs SQ and IM at 5 and 20 mg/kg doses with T1/2, Cmax, Tmax, and AUC measured.

HIV [5] = test: human protein adjusted IC90 (reference line in FIG. 1 and FIG. 2); assay type: cell-based
[6] = LAP Rat PK study, SQ and IM injections (IV values given for reference); conditions: in vivo, Sprague-Dawley rats; for Cmax / Tmax / half-life: n=3
Protocol: Injections were made in Sprague-Dawley rats SQ and IM at 5 and 20 mg/kg doses with T1/2, Cmax, Tmax, and AUC being measured.

[7] = dog, sc, SQ, dose 2.5 mg/kg, Beagle dogs, n=3
[8] = dog, IM, dose 2.5 mg/kg, Beagle dogs, n=3

SMILES: C=C(C)[C@@H]1CC[C@]2(C(=O)O)CC[C@]3(C)[C@H](CC[C@@H]4[C@@]5(C)CC[C@H](OC(=O)CC(C)(C)C(=O)O)C(C)(C)[C@@H]5CC[C@]43C)[C@@H]12 [Bevirimat]
- reduced HIV viral load by a mean of (HIV [1]; patients with trough levels >=20 μg/mL and without key baseline Gag polymorphisms at Q369, V370 or T371): 1.3 log10/mL
- HIV viral load reduction versus patients without Gag polymorphisms (HIV [1]; users with Gag polymorphisms at Q369, V370 or T371): significantly lower load reductions

SMILES: CC(C)C1=C2[C@H]3CC[C@@H]4[C@@]5(C)CC[C@H](OC(=O)CC(C)(C)C(=O)O)C(C)(C)[C@@H]5CC[C@@]4(C)[C@]3(C)CC[C@@]2([C@@H](O)CN(CCN(C)C)Cc2ccc(Cl)cc2)CC1=O [compound of Formula I, 4-(((3aR,5aR,5bR,7aR,9S,11aR,11bR,13aS)-3a-((R)-2-((4-Chlorobenzyl)(2-(dimethylamino)ethyl)amino)-1-hydroxyethyl)-1-isopropyl-5a,5b,8,8,11a-pentamethyl-2-oxo-3,3a,4,5,5a,5b,6,7,7a,8,9,10,11,11a,11b,12,13,13a-octadecahydro-2H-cyclopenta[a]chrysen-9-yl)oxy)-2,2-dimethyl-4-oxobutanoic acid]
- AUC(0-t) ([2]; read-out: AUC0-24 IV): 2960 ng·h/mL
- half-life ([2]; read-out: T1/2 IV (converted)): 3.4 h
- AUC(0-t) ([3]; Beagle, IV, dog (FIG. 2), read-out: AUC0-24 IV): 4150 ng·h/mL
- half-life ([3]; Beagle, IV, dog (FIG. 2), read-out: T1/2 IV (converted)): 6.9 h
- Cmax [3, 7]: 38 ± 11 ng/mL
- Tmax [3, 7]: 144 h
- half-life ([3]; dog, sc, SQ, dose 2.5 mg/kg, Beagle dogs, n=3, read-out: T1/2 (converted)): 96 h
- AUC(0-t) ([3]; dog, sc, SQ, dose 2.5 mg/kg, Beagle dogs, t = 22 days, read-out: AUC0-t): 7900 ng·h/mL
- Cmax [3, 8]: 59.3 ± 23.2 ng/mL
- Tmax [3, 8]: 80 ± 13.9 h
- half-life ([3]; dog, IM, dose 2.5 mg/kg, Beagle dogs, n=3, read-out: T1/2 (converted)): 72 h
- AUC(0-t) ([3]; dog, IM, dose 2.5 mg/kg, Beagle dogs, t = 17 days, read-out: AUC0-t): 8600 ng·h/mL
- Tmax ([3]; dog, IM, dose 5 mg/kg, Beagle dogs, n=3): 128 ± 27.7 h
- Cmax ([4]; IM, n=3): 69.7 ± 7.2 ng/mL
- half-life ([4]; IM, n=3): 118 h
- AUC(0-t) ([4]; IM, t = 36 days): 16200 ng·h/mL
- Cmax ([4]; sc, SQ, n=3): 59 ± 14.5 ng/mL
- Tmax ([4]; sc, SQ, n=3): 208 ± 55.4 h
- half-life ([4]; sc, SQ, n=3): 127 h
- AUC(0-t) ([4]; sc, SQ, t = 40 days): 17400 ng·h/mL
- human protein adjusted IC90 (HIV [5]): 4.31 ng/mL
- Cmax ([6]; IM, dose 5 mg/kg): 100 ± 7.8 ng/mL
- Tmax ([6]; IM, dose 5 mg/kg): 5.3 ± 2.3 h
- half-life ([6]; IM, dose 5 mg/kg): 149 h
- AUC(0-t) ([6]; IM, dose 5 mg/kg, t printed as '= days' (no number)): 7700 ng·h/mL
- Cmax ([6]; IM, dose 20 mg/kg): 178 ± 56.9 ng/mL
- Tmax ([6]; IM, dose 20 mg/kg): 8 ± 4 h
- half-life ([6]; IM, dose 20 mg/kg): 298 h
- AUC(0-t) ([6]; IM, dose 20 mg/kg, t = 42 days): 24900 ng·h/mL
- Cmax ([6]; sc, SQ, dose 5 mg/kg): 170 ± 9.2 ng/mL
- Tmax ([6]; sc, SQ, dose 5 mg/kg): 6.7 ± 2.3 h
- half-life ([6]; sc, SQ, dose 5 mg/kg): 120 h
- AUC(0-t) ([6]; sc, SQ, dose 5 mg/kg, t = 24 days): 8000 ng·h/mL
- Cmax ([6]; sc, SQ, dose 20 mg/kg): 285 ± 48.4 ng/mL
- Tmax ([6]; sc, SQ, dose 20 mg/kg): 6.7 ± 2.3 h
- half-life ([6]; sc, SQ, dose 20 mg/kg): 463 h
- AUC(0-t) ([6]; sc, SQ, dose 20 mg/kg, t = 57 days): 23900 ng·h/mL
